Experimental findings from ChEMBL document CHEMBL1131786, “Synthesis of probes for the active site of leucine dehydrogenase” (Bioorg Med Chem Lett, 1999) are described below.

One assay deals with Sporosarcina. Description: Compound was evaluated for the inhibition of Phenylalanine dehydrogenase of Sporosarcina species. The following applies: concentration not given here.
In another assay the test system is Bacillus. Description: Compound was evaluated for the inhibition of Leucine dehydrogenase of Bacillus species. The following applies: concentration not given here.

A word on the inhibition: it is the change of the read-out against control, counted positive when it falls. As for `C[C@@H](O)[C@H](N)C(=O)O`, in the assay with Sporosarcina, the inhibition came to 61%.
The same measure, in the same setting: the figure for `C[C@H](O)[C@H](N)C(=O)O` is 53%.
With `COCO[C@@H](C)C(=O)C(=O)O`, the inhibition in the assay on Bacillus amounted to 93%.
On the same count and under the same terms, the figure for `COCO[C@H](C)C(=O)C(=O)O` is 8%.
